Assay results reported in US20110118337A1, “Method of Using Compositions Comprising MIR-192 and/or MIR-215 for the Treatment of Cancer” (Merck Sharp & Dohme Corp., priority 2008, published 2011).

Experiments:
Assay type in all cases: cell-based, human
HCT116DICER^ex5 cells [1] = assay: BrdU pulse-labeling, flow cytometry (S-phase); details: BrdU pulse-labeled; 10 nM duplex
Protocol: At 48 hours post transfection, cells were left untreated, treated with nocodazole (100 ng/mL, Sigma-Aldrich), or treated with aphidicolin (2 μg/mL, Sigma-Aldrich) for an additional 18 hours before harvesting. The cells were then trypsinized, collected, fixed and stained with a propidium iodide solution. BrdU-labeling was performed according to the manufacturer's instructions (BD-Pharmigen). For phospho-histone H3 analysis, cells were fixed and permeabilized with IPF buffer (100 mM PIPES pH 6.8, 10 mM EDTA, 1 mM MgCl2, 0.2% Triton X-100, 4% formaldehyde) and stained with propidium iodide and anti-phospho-histone H3 antibody conjugated to Alexa-488 (Cell Signaling Technology). The cells were analyzed using a FACSCalibur flow cytometer (Beacton Dickinson) and FlowJo software (Tree Star, Inc.).
The transfected cells were also pulse-labeled with the thymidine analog 5-bromo-deoxyuridine (BrdU) to assay for defects in DNA synthesis. Using flow cytometry and it was determined that the percentage of cells in S-phase in the mock transfected population was 37.3%, whereas the percentage of cells in S-phase in the miR-192 transfected population was 11.9%.

HCT116DICER^ex5 cells [2] = assay: Cell cycle FACS analysis of siRNAs against top G1 and G2 arrest genes (nocodazole or aphidicolin); details: 10 mM miR-192
Protocol: Of the 62 genes shown above in TABLE 6, the 10 genes whose targeting by siRNA caused the largest percentage of cells to arrest in G1, listed below in TABLE 7, were transfected into HCT116DICER^ex5 cells in another experiment as follows.
HCT116DICER^ex5 cells were transfected with […] miR-192 or 100 nM siRNA against luciferase, or 100 nM siRNA (one siRNA duplex of the pool of three) against the putative miR-192 target of interest, as indicated in TABLES 7 and 8. At 48 hours post transfection, cells were treated with nocodazole or aphicicolin for an additional 18 hours prior to FACS analysis. The results for the nocodazole treated cells (% of cells in G1) are provided in TABLE 7, and graphically illustrated in FIG. 3A. The results for the aphidicolin treated cells (% of cells in G2) are provided in TABLE 8 and graphically illustrated in FIG. 3B.

HCT116DICER^ex5 cells [3] = assay: Transfection of siRNA pools (G1 or G2 gene set) at suboptimal levels, cell cycle FACS analysis (nocodazole or aphidicolin); details: 10 nM; for % G1 / % G2: 66 hours post transfection
Protocol: […] At 48 hours post-transfection into HCT116DICER^ex5 cells, the cells were treated with nocodazole for an additional 18 hours prior to FACS analysis.
[…] At 48 hours post-transfection into HCT116DICER^ex5 cells, the cells were treated with aphidicolin for an additional 18 hours prior to FACS analysis.

## miR-192: Synthetic duplex mimetic of miR-192, guide CUGACCUAUGAAUUGACAGCC (SEQ ID NO:1), passenger SEQ ID NO:7 (sense CUGUCAAUUCAUCGGUCUGAU; listed as RNA, chemistry not given here; listed as Homo sapiens)
HCT116DICER^ex5 cells [1]
  percentage of cells in S-phase: 11.9%
HCT116DICER^ex5 cells [2]; aphidicolin 18 hours from 48 hours post transfection
  % Cells in G2: 42.3%
HCT116DICER^ex5 cells [2]; nocodazole 18 hours from 48 hours post transfection
  % Cells in G1: 37.9%
HCT116DICER^ex5 cells [3]; after aphidicolin treatment
  % G1: 50.4%
  % G2: 44.7%
HCT116DICER^ex5 cells [3]; aphidicolin
  G2 arrest phenotype: induced a G2-arrest phenotype
HCT116DICER^ex5 cells [3]; nocodazole
  G1 arrest phenotype: induced a G1-arrest phenotype
  % G1: 43.9%
  % G2: 53.6%
